Holding throughout (format): cell-based
One assay has as its system NCI-H460. In words: Viability assay with NCI-H460 (CellTiter-Glo cytotoxicity assay, 72 h). Particulars: NCI-H460 cell line, 72 h after compounds addition. The protocol: (§1) NCI-H460 (Epithelial lung tissue; carcinoma; large cell lung cancer) were cultured in RPMI Medium 1640 (Invitrogen-22400105) supplemented with 10% fetal bovine serum (FBS; Invitrogen-10099141). All the cell lines were maintained in a humidified incubator at 37° C. with 5% CO2. Cell culture media and supplements were purchased from Invitrogen, and tissue culture flasks were purchased from Corning, 96-well plates were purchased from Greiner. CellTiter-Glo Luminescent Cell Viability Assay kits were purchased from Promega (Promega-G7573), cells counter Vi-Cell was purchased from Beckman, D300e digital dispenser was purchased from Tecan, detection instrument Envision was purchased from PerkinElmer.
(§2) Paclitaxel was purchased from SELLECK, test compounds, such as any one of the compounds disclosed herein, attained solubility in DMSO and when diluted into culture media. DMSO, solutions containing the test compounds, and culture media were warmed to 37° C. or room temperature for the solution preparation and dilutions.
(§3) NCI-H460 Cell line were seeded in 96-well plates (1200/well) and allowed to adhere to overnight (100 uL/well), for drug treatments with 2 fold dilution, 9 dose points, triplicates or vehicle control, compound stock solutions were prepared in DMSO and use D300e digital dispenser to add compounds to the wells to give the indicated final drug concentrations. Final DMSO concentration was 0.5%. Cellular ATP concentrations were assessed by using the CellTiter-Glo Cell Viability Assay as per the manufacturer's instructions 72 h after compounds addition. Additional cells lines were assayed with any one of the compounds disclosed herein according to the procedures described for the viability assay with NCI-H460.

The next assay relates to MIA PaCa-2. The assay is described as follows: Viability assay with MIA PaCa-2. Particulars: MIA PaCa-2, viability assay per Example 57. The protocol: as §1, §2, §3
A viability assay with MIA PaCa-2 (Epithelial pancreas tissue; carcinoma) was performed with compounds listed in Table 15, according to the procedures described in Example 57.

The next assay relates to HT-29. The assay is described as follows: Viability assay with HT-29. The following applies: HT-29, viability assay per Example 57. The protocol:
as §1, §2, §3
A viability assay with HT-29 (Colorectal adenocarcinoma) was performed with compounds listed in Table 18 according to the procedures described in Example 57.

The results in this text go back to patent US20170158702A1, “MULTIVALENT RAS BINDING COMPOUNDS” (KYRAS THERAPEUTICS, INC., priority 2015, published 2017).

Each structure is given as a SMILES string. Where a name gives a salt, the structure may show the parent alone.

By EC50 is commonly meant the concentration that produces a half-maximal response. The low end stands for a more potent agent, the high end for a less potent agent.

Take `NCCCn1cc(-c2ccc(OC(F)(F)F)cc2)c2c(CN3CCN(Cc4ccccc4Cl)CC3)cccc21` [C183; HCl]: the EC50 with NCI-H460, in the assay on MIA PaCa-2 and in the assay with HT-29 was not above 5 µM throughout.
Consider `NCCCn1cc(-c2ccccc2C(N)=O)c2cc(CN3CCN(Cc4ccccc4Cl)CC3)ccc21` [C185; HCl], for which the EC50 with NCI-H460, in the assay with MIA PaCa-2 and in the assay on HT-29 was 5 to 10 µM throughout.
On to `NCCCn1cc(-c2ccc(OC(F)(F)F)cc2)c2c(CN3CCN(Cc4ccc(OC(F)(F)F)cc4)CC3)cccc21` [C186; HCl], for which the half-maximal effective concentration (EC50) in the assay with NCI-H460, in the assay on MIA PaCa-2 and in the assay with HT-29 was 5 to 10 µM each time.
As to `NCCCn1cc(-c2ccc(OC(F)(F)F)cc2)c2cc(CN3CCN(Cc4ccn[nH]4)CC3)ccc21` [C187; HCl], the EC50 in the assay with NCI-H460, in the assay on MIA PaCa-2 and with HT-29 was not above 5 µM throughout.
Turning to `NCCCn1cc(-c2ccc(CCN)cc2)c2cc(CN3CCN(Cc4ccccc4Cl)CC3)ccc21` [C188; HCl], the concentration for a half-maximal effect (EC50) in the assay with NCI-H460, with MIA PaCa-2 and with HT-29 was 5 to 10 µM each time.
On to `Cn1ccc(-c2cn(CCCN)c3ccc(CN4CCN(Cc5ccccc5Cl)CC4)cc23)n1` [C189; HCl], for which the EC50 is 5 to 10 µM in the assay on NCI-H460, 5 to 10 µM in the assay on MIA PaCa-2 and not above 5 µM in the assay on HT-29.
As to `NCCCn1cc(-c2cc[nH]n2)c2cc(CN3CCN(Cc4ccccc4Cl)CC3)ccc21` [C190; HCl], the 50% effective concentration (EC50) in the assay with NCI-H460, in the assay with MIA PaCa-2 and in the assay on HT-29 was 5 to 10 µM each time.
Regarding `Cn1cc(-c2cn(CCCN)c3ccc(CN4CCN(Cc5ccccc5Cl)CC4)cc23)cn1` [C191; HCl], the EC50 in the assay on NCI-H460, in the assay with MIA PaCa-2 and with HT-29 was 5 to 10 µM throughout.
`NCCCn1cc(-c2cn[nH]c2)c2cc(CN3CCN(Cc4ccccc4Cl)CC3)ccc21` [C192; HCl]: the concentration giving a half-maximal response (EC50) in the assay with NCI-H460, with MIA PaCa-2 and in the assay on HT-29 was 5 to 10 µM each time.
Turning to `CN(CCN(C)C(=O)c1ccc2c(c1)c(-c1ccc(OC(F)(F)F)cc1)cn2CCCN)Cc1ccccc1Cl` [C193; HCl], the EC50 in the assay on NCI-H460, with MIA PaCa-2 and in the assay on HT-29 was not above 5 µM throughout.
In the case of `Cc1ncc(CN2CCN(Cc3ccc4c(c3)c(-c3ccc(OC(F)(F)F)cc3)cn4CCCN)CC2)n1C` [C194; HCl], the 50% effective concentration (EC50) in the assay on NCI-H460, in the assay on MIA PaCa-2 and in the assay with HT-29 was 5 to 10 µM throughout.
`Cc1ncc(CN2CCN(Cc3ccc4c(c3)c(-c3ccc(OC(F)(F)F)cc3)cn4CCCN)CC2)[nH]1` [C195; HCl]: the half-maximal effective concentration (EC50) in the assay with NCI-H460, with MIA PaCa-2 and in the assay on HT-29 was 5 to 10 µM each time.
Take `COc1ccc(-c2cn(CCCN)c3ccc(CN4CCN(Cc5ccccc5Cl)CC4)cc23)nc1` [C196; HCl]: the EC50 with NCI-H460, in the assay on MIA PaCa-2 and in the assay with HT-29 was not above 5 µM in each case.
In the case of `FC(F)(F)Oc1ccc(-c2cn(C3CCNC3)c3ccc(CN4CCN(Cc5ccccc5Cl)CC4)cc23)cc1` (stereo not drawn) [C197; HCl], the EC50 in the assay with NCI-H460, with MIA PaCa-2 and in the assay on HT-29 was not above 5 µM each time.
On to `FC(F)(F)Oc1ccc(-c2cn(CCNc3ccccn3)c3ccc(CN4CCN(Cc5ccccc5Cl)CC4)cc23)cc1` [C199; HCl], for which the EC50 with NCI-H460, with MIA PaCa-2 and with HT-29 was 5 to 10 µM in each case.
As to `COc1ccc(-n2c(=O)n(CCCN)c3ccc(CN4CCN(Cc5ccccc5Cl)CC4)cc32)cc1` [C200; HCl], the EC50 in the assay with NCI-H460, in the assay on MIA PaCa-2 and in the assay with HT-29 was 5 to 10 µM throughout.
Turning to `NC1(C(=O)NCCCn2nc(-c3ccc(OC(F)(F)F)cc3)c3cc(CN4CCN(Cc5ccccc5Cl)CC4)ccc32)CCNCC1` [C201; HCl], the EC50 in the assay with NCI-H460, with MIA PaCa-2 and in the assay on HT-29 was not above 5 µM each time.
In the case of `FC(F)(F)Oc1ccc(-c2cn(CCCCNc3ccccn3)c3ccc(CN4CCN(Cc5ccccc5Cl)CC4)cc23)cc1` [C202; Formic Acid], the half-maximal effective concentration (EC50) was not above 5 µM in the assay with NCI-H460, 5 to 10 µM with MIA PaCa-2 and 5 to 10 µM in the assay on HT-29.
With `NCC(=O)N1CCC(n2cc(-c3ccc(OC(F)(F)F)cc3)c3cc(CN4CCN(Cc5ccccc5Cl)CC4)ccc32)CC1` [C203; HCl], the 50% effective concentration (EC50) in the assay with NCI-H460, in the assay with MIA PaCa-2 and with HT-29 was not above 5 µM throughout.
For `COc1cnc(-c2cn(CCCN)c3ccc(CN4CCN(Cc5ccccc5Cl)CC4)cc23)nc1` [C204; HCl], the EC50 with NCI-H460, in the assay on MIA PaCa-2 and with HT-29 was not above 5 µM each time.
Consider `FC(F)(F)Oc1ccc(-c2cn(CCCCN(c3ccccn3)c3ccccn3)c3ccc(CN4CCN(Cc5ccccc5Cl)CC4)cc23)cc1` [C205; Formic Acid], for which the concentration for a half-maximal effect (EC50) with NCI-H460, in the assay with MIA PaCa-2 and in the assay with HT-29 was 5 to 10 µM throughout.
On to `COc1ccc(-c2cn(C(C)(C)CCN)c3ccc(CN4CCN(Cc5ccccc5Cl)CC4)cc23)cc1` [C206; HCl], for which the EC50 in the assay with NCI-H460, in the assay on MIA PaCa-2 and in the assay with HT-29 was not above 5 µM in each case.
For the compound `FC(F)(F)Oc1ccc(-c2cn(CCCNc3ccccn3)c3ccc(CN4CCN(Cc5ccccc5Cl)CC4)cc23)cc1` [C208; Formic Acid], the concentration for a half-maximal effect (EC50) was not above 5 µM in the assay with NCI-H460, 5 to 10 µM with MIA PaCa-2 and 5 to 10 µM in the assay with HT-29.
For the compound `NCCCn1cc(-c2ccc(OC(F)(F)F)cc2)c2cc(CN3CCC(Nc4ccc(Cl)cc4)CC3)ccc21` [C210; HCl], the EC50 in the assay with NCI-H460, with MIA PaCa-2 and in the assay on HT-29 was not above 5 µM in each case.
For `NC1CCC(n2cc(-c3ccc(OC(F)(F)F)cc3)c3cc(CN4CCN(Cc5ccccc5Cl)CC4)ccc32)CC1` (stereo not drawn) [C212; HCl], the concentration giving a half-maximal response (EC50) in the assay with NCI-H460, in the assay on MIA PaCa-2 and in the assay with HT-29 was not above 5 µM in each case.
Turning to `NCCCn1cc(-c2ccc(OC(F)(F)F)cc2)c2cc(CN3CCC(Nc4ccccc4Cl)CC3)ccc21` [C213; Formic Acid], the EC50 in the assay with NCI-H460, in the assay with MIA PaCa-2 and with HT-29 was not above 5 µM each time.
For the compound `NCCCn1cc(-c2ccc(OC(F)(F)F)cc2)c2cc(CN3CCC(Nc4cccc(Cl)c4)CC3)ccc21` [C214; Formic Acid], the EC50 in the assay with NCI-H460, in the assay with MIA PaCa-2 and with HT-29 was not above 5 µM throughout.
Turning to `NCCCn1cc(-c2ccc(OC(F)(F)F)cc2)c2cc(CN3CCC(Oc4ccccc4Cl)CC3)ccc21` [C215; HCl], the EC50 with NCI-H460, with MIA PaCa-2 and in the assay on HT-29 was not above 5 µM in each case.
In the case of `NCCCn1cc(-c2ccc(OC(F)(F)F)cc2)c2cc(CN3CCC(Oc4ccc(Cl)cc4)CC3)ccc21` [C216; HCl], the EC50 with NCI-H460, in the assay on MIA PaCa-2 and with HT-29 was not above 5 µM in each case.
In the case of `FC(F)(F)Oc1ccc(-n2cc(C3CCNCC3)c3cc(CN4CCN(Cc5ccccc5Cl)CC4)ccc32)cc1` [C217; HCl], the 50% effective concentration (EC50) with NCI-H460, in the assay on MIA PaCa-2 and in the assay with HT-29 was not above 5 µM in each case.
Take `NCc1ccc(-n2cc(-c3ccc(OC(F)(F)F)cc3)c3cc(CN4CCN(Cc5ccccc5Cl)CC4)ccc32)cn1` [C218; Formic Acid]: the 50% effective concentration (EC50) in the assay with NCI-H460, in the assay with MIA PaCa-2 and with HT-29 was not above 5 µM each time.
Take `NCC(=O)NCc1ccc(-n2cc(-c3ccc(OC(F)(F)F)cc3)c3cc(CN4CCN(Cc5ccccc5Cl)CC4)ccc32)cn1` [C219; HCl]: the EC50 in the assay with NCI-H460, with MIA PaCa-2 and in the assay on HT-29 was not above 5 µM throughout.
